Assay results: patent US20260345798A1, “COMPOUNDS AND METHODS OF USE THEREOF” (Virginia Commonwealth University, priority 2023, published 2026)
Residues, ends and D or L forms follow the SMILES beside them.

What was measured:
[1] = tested on: Src and P38 in B16 melanoma cells; experiment: Western blotting, B16 cells; assay type: cell-based; settings: B16 mouse melanoma cells, Western blot
Description: (§1) Western blotting was performed following a standard protocol as described previously (6,8,18,29). Antibodies used in this study were purchased from Cell Signaling Technology (Boston, MA): p-Src (Y416), total Src, matrix metalloproteinase-2 (MMP-2) and matrix metaloproteinase-9 (MMP-9), focal adhesion kinase (FAK), p IKKα/β (S176/180), total IKK, p P38 (T180/Y182) and total P38. MDA-9/Syntenin antibody was obtained from Abnova Inc. (Taiwan). β-actin (Sigma-Aldrich, St. Louis, MO) was used as an endogenous loading control. Fibronectin was purchased from EMD Millipore (Billerica, MA).

[2] = tested on: IL-6, IL-10, IL-16; experiment: IL-6, IL-10, IL-16 mRNA by semiquantitative RT-PCR, murine melanoma cells; assay type: cell-based, mouse; settings: murine melanoma cells (B16)
Description: FIG. 14 is a series of histograms showing the IL-6, IL-10, and IL-16 mRNA fold change in RNA lysates prepared from A-375, C8161.9, and B16 cells treated with IVMT-Rx-3 at varying concentrations as indicated.
Total cellular RNA was extracted using an RNAeasy kit (Qiagen, Germany) as described previously (8,9). All Taqman probes used in this study were obtained from Applied Biosystems (Applied Biosystems, Foster City, CA). Real time PCR was performed using an ABI ViiA7 fast real-time PCR system (Applied Biosystems, Foster City, CA).

[3] = tested on: T cell, MDSC and Treg populations; experiment: Flow cytometry of immune cells in lungs of B16-injected mice; assay type: in vivo, mouse; settings: 30 mg/kg I.P., 6 injections
Description: (§2) FIG. 6B is a series of histograms showing the number of nodules/lung, T cell populations (CD8^+IFN-γ^+) and myeloid-derived suppressor cells (MDSCs) in the lungs of the treatment groups described in FIG. 6A, as measured by flow cytometry. *: Statistical significance (p<0.05);**: Statistical significance (p<0.01);***: Statistical significance (p<0.001). ****: Statistical significance (p<0.0001).
FIG. 15 is a histogram showing the comparative effect of DMSO and IVMT-Rx-3 on Treg populations, as measured by flow cytometry. 5×10^5 B16 cells were injected intravenously in C57BL/6 mice, and the mice were treated with DMSO control or IVMT-Rx-3 (intraperitoneal injection 30 mg/kg, 3× in a week, 6 injections in total). MDSC (Cd11^+Gr1^+) and Treg populations (CD4^+CD25^+[…]) in the lungs were measured by flow cytometry.
Single cells were isolated from lungs by digestion with collagenase D and DNAse I. Cells were stained with the corresponding antibodies and fluorescence signals were measured with a BD Fortessa flow cytometer (BD Biosciences, San Jose, CA). Data were analyzed further with FACs DIVA software (BD Biosciences, San Jose, CA) (18). The antibodies used in this study were CD3, Gr1, CD11b, IFN-γ, CD45, CD8 (Biolegend, San Diego, CA, USA). CD4 (BD Biosciences, San Jose, CA, USA), CD25, and FOXP3 (eBiosciences, CA, USA).

[4] = tested on: human melanoma cells (established and early passage patient-derived); experiment: Proliferation / colony formation of human melanoma cells; assay type: cell-based; settings: 10 to 50 μM
Description: FIG. 2C is a series of images showing colony formation assays of established human melanoma and patient-derived early passage human melanoma cells treated with IVMT-Rx-3.
FIG. 2D is a series of histograms showing the number of colonies/plate in the colony formation assays described in FIG. 2C. NS: Not statistically significant; Statistically significant p<0.05.
FIG. 2E is a series of histograms showing the number of colonies/plate in colony formation assays of patient-derived early passage human melanoma cells treated with IVMT-Rx-3. NS: Not statistically significant; Statistically significant p<0.05.
The effect of IVMT-Rx-3 on primary normal human epidermal melanocyte cell growth and survival was determined after short term (24 hr., growth assays) (FIG. 2A) and long-term exposure (3-week, clonal assays) (FIG. 2B).

[5] = tested on: MDA-9/Syntenin: Src signaling pathways in melanoma cell lines; experiment: Western blotting of signaling proteins, other melanoma cell lines; assay type: cell-based, human; settings: various melanoma cell lines; Western blot FIG. 12
Description: FIG. 12 is a Western blot of different signaling molecules as indicated for indicated cell lines treated with IVMT-Rx-3 at varying concentrations.
as §1

[6] = tested on: T cells; experiment: T cell infiltration into the tumor environment; assay type: in vivo; settings: targeting MDA-9/Syntenin
[7] = tested on: B16 lung metastases; experiment: B16 lung metastasis model in C57BL/6 mice; assay type: in vivo, mouse; settings: 30 mg/kg I.P., 3× per week, 6 injections
Description: FIG. 6A is a series of images of B16 lung metastases in C57BL/6 mice treated with DMSO vehicle, PDZ1i, or IVMT-Rx-3 (intraperitoneal injection of 30 mg/kg, 3×/week, 6 injections total). 1×10^5 B16 cells were injected intravenously in C57BL/6 mice (n=7, per group) prior to treatment.
as §2
All animal experiments were performed according to guidelines established by VCU IACUC. Immune competent mice (6-week-old male C57BL/6) were used in this study for determining the anti-metastatic efficiency of IVMT-Rx-3. Mice were purchased from Jackson Laboratories and after one-week in barrier facilities, experiments were performed. To establish lung metastases, murine B16 (1×10^5 cells/0.1 ml PBS) were injected via tail vein in C57BL/6 mice (18). Test chemical (IVMT-Rx-3) was administrated at 30 mg/kg body weight three times a week I.P. for the first two weeks (six injections, C57BL/6 study). DMSO was used as control. Anti-PD-L1 antibody and control antibodies for therapeutic injections were purchased from Bio X Cell (West Lebanon, NH, USA).
1×10^5 B16 cells were injected intravenously in C57BL/6 mice and treated with IVMT-Rx-3 (intraperitoneal injection 30 mg/kg, 3× in a week, 6 injections in total). 100 μg of Anti-PD-L1 antibody was injected through the I/P (intraperitoneal) route (3 times a week, over a 2-week period). A set of 20 animals were first injected with B16 cells (1×10^5 cells/mouse) and randomly divided into four groups (n=5) for survival studies. As stated in the above-mentioned lung metastasis protocol, mice received 6 doses of control vehicle or IVMT-Rx-3 either alone or in combination with anti-PD-L1 over the first two weeks. […]

Cc1cc(NC(=O)c2nc3[nH]c4c(c(=O)n3n2)CCC4)c(C)cc1NC(=O)CCOCCC(=O)N[C@H](C(=O)N[C@@H](CC(N)=O)C(=O)N[C@@H](CCC(=O)O)C(=O)N[C@@H](Cc1ccc(O)cc1)C(=O)N[C@@H](Cc1ccc(O)cc1)C(=O)N[C@H](C(=O)O)C(C)C)[C@@H](C)O [IVMT-Rx-3] (HELM PEPTIDE1{[Cc1cc(NC(=O)c2nc3[nH]c4c(c(=O)n3n2)CCC4)c(C)cc1NC(=O)CCOCCC(=O)[*:2]].T.N.E.Y.Y.V}$$$$V2.0)
Src and downstream P38 [1]: downregulation of Src and downstream P38 | IL-6, IL-10, IL-16 expression [2]: Down-regulation | IFN-γ-producing CD8+ T cell populations [3]: significant increase | MDSC populations [3]: suppression of MDSCs | Treg population ([3]; 5×10^5 B16 cells): no significant changes | inhibition of proliferation or long-term survival [4]: did not inhibit proliferation or long-term survival | inactivation of MDA-9/Syntenin: Src associated signaling pathways [5]: inactivation of various signaling pathways | T cell infiltration into the tumor environment [6]: causes T cell infiltration into the tumor environment | efficacy against lung metastases compared with PDZ1i [7]: significantly higher compared with PDZ1i | lung metastasis (combination experiment) ([7]; single agent): markedly reduced lung metastasis | number of lung nodules ([7]; vs vehicle): significantly reduced the number of lung nodules
